# Results: US20240025891A1 (Celgene Corporation, priority 2020, published 2024)
# Tested on: Dirofilaria immitis microfilariae and 4th stage larvae (L4)
# Test: Heartworm screen Dirofilaria immitis (DiMF and DiL4 assays)
# Type: cell-based
# Settings: read-out: D. immitis Act class
# Protocol: Heartworm Screen Dirofilaria immitis (D. immitis)
# (§1) Dirofilaria immitis, Microfilaria (DiMF) Assay. Compounds were dissolved and serially diluted in DMSO. Aliquots were spotted to the empty wells of assay plates. Media and microfilariae of Dirofilaria immitis were added to each well to dilute the test compounds to the desired concentrations. Assay plates were incubated for approximately 72 hours, and the larvae in each well were observed microscopically for drug effect. Microfilariae in each well were assessed subjectively for survival or paralysis, and results were reported as Minimum Effective Dose (MED).
# as §1, with “L4 stage (DiL4)” for “Microfilaria (DiMF)”, “4th stage larvae (L4)” for “microfilariae”, “Larvae” for “Microfilariae”
# Active and selective (DiL4 vs. DiMF potency) example compounds were subsequently evaluated in heartworm positive dog studies to correlate the in vitro selectivity profile with in vivo effects on circulating microfilariae.
row,Compound,IC50
1,"CCc1cnc(Nc2nc(-c3ccccn3)cs2)cc1C(F)(F)F [Example 130, N-(5-ethyl-4-(trifluoro-methyl)pyridin-2-yl)-4-(pyridin-2-yl)thiazol-2-amine]",< 200 nM
2,"Cc1ccnc(Nc2nc(-c3ccccn3)c(COCC3CCC3)s2)c1 [Example 182, 5-((cyclobutyl-methoxy)methyl)-N-(4-methylpyridin-2-yl)-4-(pyridin-2-yl)thiazol-2-amine]",< 200 nM
3,"c1ccc(-c2csc(Nc3ccc(C4CCCC4)cn3)n2)nc1 [Example 138, N-(5-cyclopentyl-pyridin-2-yl)-4-(pyridin-2-yl)thiazol-2-amine]",< 200 nM
4,"c1ccc(-c2csc(Nc3cc(C4CCC4)ccn3)n2)nc1 [Example 168, N-(4-cyclobutyl-pyridin-2-yl)-4-(pyridin-2-yl)thiazol-2-amine]",< 200 nM
5,"Cc1ccnc(Nc2nc(-c3cccnc3)cs2)c1 [Example 226, N-(4-methylpyridin-2-yl)-4-(pyridin-3-yl)thiazol-2-amine]",200 to 500 nM
6,"Cc1ccnc(Nc2nc(-c3ccc(Cl)cn3)cs2)c1 [Example 89, 4-(5-chloropyridin-2-yl)-N-(4-methylpyridin-2-yl)thiazol-2-amine]",200 to 500 nM
7,"COc1ccnc(-c2csc(Nc3ncc(C(F)(F)F)cc3N(C)C(C)=O)n2)c1 [Example 96, N-(2-(4-(4-methoxypyridin-2-yl)thiazol-2-ylamino)-5-(trifluoromethyl)pyridin-3-yl)-N-methylacetamide]",200 to 500 nM
8,"CCOc1ccc(-c2csc(Nc3nc(C)ccc3C)n2)nc1 [Example 86, N-(3,6-dimethylpyridin-2-yl)-4-(5-ethoxypyridin-2-yl)thiazol-2-amine]",200 to 500 nM
9,"Cc1ccnc(Nc2nc(-c3ccccn3)c(C(C)(C)C)s2)c1 [Example 181, 5-tert-butyl-N-(4-methylpyridin-2-yl)-4-(pyridin-2-yl)thiazol-2-amine]",500 to 5000 nM
10,"Cc1ccnc(Nc2nc(-c3ccccn3)c(C)s2)c1 [Example 132, 5-methyl-N-(4-methyl-pyridin-2-yl)-4-(pyridin-2-yl)thiazol-2-amine]",200 to 500 nM
11,"CCOc1ccc(-c2csc(Nc3ccc(C(F)(F)F)cn3)n2)nc1 [Example 95, 4-(5-ethoxypyridin-2-yl)-N-(5-(trifluoromethyl)pyridin-2-yl)thiazol-2-amine]",< 200 nM
12,"CC(=O)N(C)c1cc(C(F)(F)F)cnc1Nc1nc(-c2ccccn2)cs1 [Example 212, N-methyl-N-(2-(4-(pyridin-2-yl)thiazol-2-ylamino)-5-(trifluoro-methyl)pyridin-3-yl) acetamide]",500 to 5000 nM
13,"Cc1ccnc(Nc2nc(-c3cc(C)ccn3)cs2)c1 [Example 220, N,4-bis(4-methylpyridin-2-yl)thiazol-2-amine]",< 200 nM
14,"c1ccc(-c2csc(Nc3cc4[nH]ccc4cn3)n2)nc1 [Example 136, 4-(pyridin-2-yl)-N-(1H-pyrrolo [3,2-c]pyridin-6-yl)thiazol-2-amine]",500 to 5000 nM
15,"CCOc1ccc(-c2csc(Nc3cccc(C)n3)n2)nc1 [Example 90, 4-(5-ethoxypyridin-2-yl)-N-(6-methylpyridin-2-yl)thiazol-2-amine]",500 to 5000 nM
16,"CCOc1ccc(-c2csc(Nc3ccc(C)cn3)n2)nc1 [Example 81, 4-(5-ethoxypyridin-2-yl)-N-(5-methylpyridin-2-yl)thiazol-2-amine]",< 200 nM
17,"CCCCc1ccnc(Nc2nc(-c3ccccn3)cs2)c1 [Example 167, N-(4-butylpyridin-2-yl)-4-(pyridin-2-yl)thiazol-2-amine]",< 200 nM
18,"c1ccc(-c2csc(Nc3ccc4cc[nH]c4n3)n2)nc1 [Example 134, 4-(pyridin-2-yl)-N-(1H-pyrrolo [2,3-b]pyridin-6-yl)thiazol-2-amine]",500 to 5000 nM
19,"FC(F)(F)c1ccc(Nc2nc(-c3ccccn3)cs2)nc1 [Example 217, 4-(pyridin-2-yl)-N-(5-(trifluoromethyl)pyridin-2-yl)thiazol-2-amine]",< 200 nM
20,"c1ccc(-c2csc(Nc3cc(-c4cccnn4)ccn3)n2)nc1 [Example 169, N-(4-(pyridazin-3-yl)pyridin-2-yl)-4-(pyridin-2-yl)thiazol-2-amine]",500 to 5000 nM
21,"c1ccc(-c2ccc(Nc3nc(-c4ccccn4)cs3)nc2)cc1 [Example 221, N-(5-phenylpyridin-2-yl)-4-(pyridin-2-yl)thiazol-2-amine]",< 200 nM
22,"Cc1ccnc(Nc2nc(-c3cc(Cl)ccn3)cs2)c1 [Example 223, 4-(4-chloropyridin-2-yl)-N-(4-methylpyridin-2-yl)thiazol-2-amine]",< 200 nM
23,"Cc1cccnc1-c1csc(Nc2cc(-c3ccccc3)ccn2)n1 [Example 100, 4-(3-methylpyridin-2-yl)-N-(4-phenylpyridin-2-yl)thiazol-2-amine]",200 to 500 nM
24,"CC(=O)N(C)c1cc(C(F)(F)F)cnc1Nc1nc(-c2cc(OC3COC3)ccn2)cs1 [Example 73, N-methyl-N-(2-(4-(4-(oxetan-3-yloxy)pyridin-2-yl)thiazol-2-ylamino)-5-(trifluoromethyl)pyridin-3-yl)acetamide]",500 to 5000 nM
25,"c1ccc(-c2ccnc(Nc3nc(-c4ccccn4)cs3)c2)cc1 [Example 126, N-(4-phenylpyridin-2-yl)-4-(pyridin-2-yl)thiazol-2-amine]",< 200 nM
26,"c1ccc(-c2csc(Nc3cc(-c4cnccn4)ccn3)n2)nc1 [Example 173, N-(4-(pyrazin-2-yl)pyridin-2-yl)-4-(pyridin-2-yl)thiazol-2-amine]",200 to 500 nM
27,"Cc1ccnc(Nc2nc(-c3cc(-c4ccccc4)ccn3)cs2)c1 [Example 101, N-(4-methylpyridin-2-yl)-4-(4-phenylpyridin-2-yl)thiazol-2-amine]",< 200 nM
28,"Cc1ccnc(Nc2nc(-c3ccccn3)c(CN3CCC3)s2)c1 [Example 183, 5-(azetidin-1-ylmethyl)-N-(4-methylpyridin-2-yl)-4-(pyridin-2-yl)thiazol-2-amine]",500 to 5000 nM
